The record followed here is the NIST ThermoML archive (doi:10.1021/acs.jced.8b00487).

Structures are written as SMILES. “And” between values parts separate entries of the source, which are not always exact repeats. Equal values may be shown once. Numbers after ± are expanded uncertainties.

Broadly, the mass density is the mass of a sample divided by its volume.

This data set can be described thus: xn = mol fraction of the nth substance listed. Particulars: 298.15 K, 101 kPa, Liquid, Vibrating tube method.

As for `CCCCC(CC)COP(=O)([O-])OCC(CC)CCCC.CCCCC(CC)COP(=O)([O-])OCC(CC)CCCC.CCCCC(CC)COP(=O)([O-])OCC(CC)CCCC.[Dy+3]` (stereo unspecified) [dysprosium(III) bis(2-ethylhexyl) phosphate] + CCCCC(CC)COP(=O)(O)OCC(CC)CCCC, the mass density runs as follows: (x1 = 0.0039) 973.1 ± 2 kg/m3; (x1 = 0.00883) 975.7 ± 2 kg/m3; (x1 = 0.02055) 981.6 ± 2 kg/m3; (x1 = 0.03494) 988.7 ± 2 kg/m3; (x1 = 0.04879) 995.1 ± 2 kg/m3.
As to `CCCCC(CC)COP(=O)(O)OCC(CC)CCCC` (stereo unspecified) [bis(2-ethylhexyl) hydrogen phosphate] + CCCCC(CC)COP(=O)([O-])OCC(CC)CCCC.CCCCC(CC)COP(=O)([O-])OCC(CC)CCCC.CCCCC(CC)COP(=O)([O-])OCC(CC)CCCC.[Sm+3], the mass density (x2 = 0) is 971 ± 2 kg/m3 and 970.5 ± 2 kg/m3.
As for `CCCCC(CC)COP(=O)(O)OCC(CC)CCCC` (stereo unspecified) [bis(2-ethylhexyl) hydrogen phosphate] + CCCCC(CC)COP(=O)([O-])OCC(CC)CCCC.CCCCC(CC)COP(=O)([O-])OCC(CC)CCCC.CCCCC(CC)COP(=O)([O-])OCC(CC)CCCC.[Dy+3], the mass density (x2 = 0) is listed as 971 ± 2 kg/m3.
Still for that read-out and setting: the same measure for `CCCCC(CC)COP(=O)(O)OCC(CC)CCCC` (stereo unspecified) [bis(2-ethylhexyl) hydrogen phosphate] + CCCCC(CC)COP(=O)([O-])OCC(CC)CCCC.CCCCC(CC)COP(=O)([O-])OCC(CC)CCCC.CCCCC(CC)COP(=O)([O-])OCC(CC)CCCC.[Nd+3]: 971 ± 2 kg/m3 and 969.1 ± 2 kg/m3 and 970.5 ± 2 kg/m3; for `CCCCC(CC)COP(=O)(O)OCC(CC)CCCC` (stereo unspecified) [bis(2-ethylhexyl) hydrogen phosphate] + CCCCC(CC)COP(=O)([O-])OCC(CC)CCCC.CCCCC(CC)COP(=O)([O-])OCC(CC)CCCC.CCCCC(CC)COP(=O)([O-])OCC(CC)CCCC.[Gd+3]: 970.5 ± 2 kg/m3.
Regarding `CCCCC(CC)COP(=O)([O-])OCC(CC)CCCC.CCCCC(CC)COP(=O)([O-])OCC(CC)CCCC.CCCCC(CC)COP(=O)([O-])OCC(CC)CCCC.[Nd+3]` (stereo unspecified) [neodymium(III) bis(2-ethylhexyl) phosphate] + CCCCC(CC)COP(=O)(O)OCC(CC)CCCC, the mass density (x1 = 0.01187) amounted to 976.8 ± 2 kg/m3; the mass density (x1 = 0.01364) stood at 975.7 ± 2 kg/m3; the mass density (x1 = 0.01427) is listed as 977.3 ± 2.1 kg/m3; the mass density (x1 = 0.02626) is reported as 981.7 ± 2.5 kg/m3; the mass density (x1 = 0.02653) was found to be 983.6 ± 2.5 kg/m3; the mass density (x1 = 0.02822) turned out to be 983.8 ± 2 kg/m3. The mass density came out at 988.6 ± 2 kg/m3 (x1 = 0.03921); 987.6 ± 2 kg/m3 (x1 = 0.0402); 990.4 ± 2 kg/m3 (x1 = 0.04214); 991 ± 2 kg/m3 (x1 = 0.04446); 992.1 ± 2 kg/m3 (x1 = 0.04708); 991.6 ± 2 kg/m3 (x1 = 0.04955). In addition, the mass density came out at 994.9 ± 2 kg/m3 (x1 = 0.05317); 1002.3 ± 2 kg/m3 (x1 = 0.0729); 1002.5 ± 2 kg/m3 (x1 = 0.07322); 1002.6 ± 2 kg/m3 (x1 = 0.07707); 1006.6 ± 2 kg/m3 (x1 = 0.0837).
For the compound `CCCCC(CC)COP(=O)([O-])OCC(CC)CCCC.CCCCC(CC)COP(=O)([O-])OCC(CC)CCCC.CCCCC(CC)COP(=O)([O-])OCC(CC)CCCC.[Tb+3]` (stereo unspecified) [terbium(III) bis(2-ethylhexyl) phosphate] + CCCCC(CC)COP(=O)(O)OCC(CC)CCCC, the mass density is, setting by setting: (x1 = 0.00621) 973.7 ± 2 kg/m3; (x1 = 0.0103) 975.8 ± 2 kg/m3; (x1 = 0.01167) 976.6 ± 2 kg/m3; (x1 = 0.01875) 980 ± 2 kg/m3; (x1 = 0.02771) 984.4 ± 2 kg/m3; (x1 = 0.04671) 993.3 ± 2 kg/m3.
In the case of `CCCCC(CC)COP(=O)(O)OCC(CC)CCCC` (stereo unspecified) [bis(2-ethylhexyl) hydrogen phosphate] + CCCCC(CC)COP(=O)([O-])OCC(CC)CCCC.CCCCC(CC)COP(=O)([O-])OCC(CC)CCCC.CCCCC(CC)COP(=O)([O-])OCC(CC)CCCC.[Tb+3], for the setting “x2 = 0”, the mass density came to 970.5 ± 2 kg/m3.
On the same count and under the same terms, in the case of `CCCCC(CC)COP(=O)(O)OCC(CC)CCCC` (stereo unspecified) [bis(2-ethylhexyl) hydrogen phosphate] + CCCCC(CC)COP(=O)([O-])OCC(CC)CCCC.CCCCC(CC)COP(=O)([O-])OCC(CC)CCCC.CCCCC(CC)COP(=O)([O-])OCC(CC)CCCC.[Eu+3] it was 970.5 ± 2 kg/m3.
Turning to `CCCCC(CC)COP(=O)([O-])OCC(CC)CCCC.CCCCC(CC)COP(=O)([O-])OCC(CC)CCCC.CCCCC(CC)COP(=O)([O-])OCC(CC)CCCC.[Eu+3]` (stereo unspecified) [europium(III) bis(2-ethylhexyl) phosphate] + CCCCC(CC)COP(=O)(O)OCC(CC)CCCC, the mass density by setting is: (x1 = 0.01457) 977.5 ± 2 kg/m3; (x1 = 0.03221) 985.6 ± 2 kg/m3; (x1 = 0.04158) 989.9 ± 2 kg/m3; (x1 = 0.05518) 995.6 ± 2 kg/m3; (x1 = 0.07111) 1001.7 ± 2 kg/m3.
Turning to `CCCCC(CC)COP(=O)(O)OCC(CC)CCCC` (stereo unspecified) [bis(2-ethylhexyl) hydrogen phosphate] + Cc1ccccc1C, the mass density (x2 = 0.5002) was 946.2 ± 4 kg/m3 and 946.1 ± 4 kg/m3; the mass density (x2 = 0.5198) is given as 944.7 ± 4 kg/m3; the mass density (x2 = 0.5201) is listed as 944.6 ± 4 kg/m3; the mass density (x2 = 0.7313) amounted to 924.4 ± 4 kg/m3; the mass density (x2 = 0.8195) was 912.6 ± 4 kg/m3 and 912.4 ± 4 kg/m3; the mass density (x2 = 0.8197) is listed as 912.5 ± 4 kg/m3. For the same compound, the mass density runs as follows: (x2 = 0.8203) 912.4 ± 4 kg/m3; (x2 = 0.8204) 912.2 ± 4 kg/m3; (x2 = 0.9275) 893.2 ± 4 kg/m3 and 892.9 ± 4 kg/m3; (x2 = 0.9406) 890.1 ± 4 kg/m3 and 890.3 ± 4 kg/m3 and 890 ± 4 kg/m3; (x2 = 0.9759) 882 ± 4 kg/m3; (x2 = 0.976) 882 ± 4 kg/m3 and 881.9 ± 4 kg/m3 and 881.8 ± 4 kg/m3.
In the case of `CCCCC(CC)COP(=O)([O-])OCC(CC)CCCC.CCCCC(CC)COP(=O)([O-])OCC(CC)CCCC.CCCCC(CC)COP(=O)([O-])OCC(CC)CCCC.[Sm+3]` (stereo unspecified) [samarium(III) bis(2-ethylhexyl) phosphate] + CCCCC(CC)COP(=O)(O)OCC(CC)CCCC, the mass density by setting is: (x1 = 0.00583) 974 ± 2 kg/m3; (x1 = 0.01288) 976.9 ± 2 kg/m3; (x1 = 0.01616) 978.9 ± 2 kg/m3; (x1 = 0.02646) 983.1 ± 2 kg/m3; (x1 = 0.03185) 986.2 ± 2 kg/m3; (x1 = 0.03372) 986.4 ± 2 kg/m3. For the same compound, the mass density by setting is: (x1 = 0.05017) 993.9 ± 2 kg/m3; (x1 = 0.05958) 997.2 ± 2 kg/m3; (x1 = 0.06022) 998.2 ± 2 kg/m3; (x1 = 0.07053) 1001.8 ± 2 kg/m3.
